Assay results taken from patent US20250114415A1, “METHOD FOR LOWERING CHOLESTEROL AND LIPID LEVELS USING THE ANTRODIA CINNAMOMEA WATER-INSOLUBLE DIETARY FIBER” (UNIVERSITY OF SHANGHAI FOR SCIENCE AND TECHNOLOGY, priority 2020, published 2025).
Marks after values point to notes of the source that are not given here.

Tests used:
[1] = test system: mice fed with high-fat feed; test: Lipid-lowering function test (animal test): serum lipids (HDL-C, LDL-C) of mice on high-fat feed; assay type: in vivo, C57BL/6 mice; details: gavage, 8 weeks
Description: Samples: The water-insoluble dietary fiber component ACA-DK of Antrodia cinnamomea, which is prepared as a suspension of a certain concentration and placed at 4° C. for further use.
Test animals: 40 C57BL/6 SPF-grade mice weighing 18-22 g were purchased from Shanghai JieSijie Experimental Animal Co., Ltd. (license No. SCXK20180004). They were randomly divided into 4 groups with 10 mice in each group.
Test method: In test environment, the mice were divided into the following 4 groups: Normal group NG (gavage with normal saline), model group MG (high-fat diet), positive control group PG (gavage with lovastatin) and insoluble dietary fiber group LG. Mice in normal group NG were fed with basic feed, and mice in the rest of the groups were fed with high-fat feed. For mice in insoluble dietary fiber group LG, gavage with the dietary fiber was administered once a day for 8 weeks.
Feeding conditions: Mice were raised in an IVC system with a temperature of 18-22° C. and a relative humidity of 40-70%. License No. of the laboratory animal using license is SCXK20180004. The irradiated sterile feed for mice was purchased from Jiangsu Synergy Pharmaceutical Bioengineering Co., Ltd.
Basic feed: Flour 20%, bran 25%, corn 20%, rice flour 10%, soybean meal 20%, fish meal 2%, bone meal 2%, salt 0.9%, vitamin 0.1%;
High-fat feed: Lard 10%, sucrose 5%, cholesterol 1%, bile salt 0.3%, basic feed 83.7%. […]

[2] = test system: mice fed with high-fat feed; test: Lipid-lowering function test (animal test): TG and TC of mice on high-fat feed; assay type: in vivo, C57BL/6 mice; details: gavage, 8 weeks
Description: SPSS 22.0 Software was used to statistically analyze the original data of each experiment, and the ANOVA program was used to test the significance of the data.

For `CC[C@H](C)C(=O)O[C@H]1C[C@@H](C)C=C2C=C[C@H](C)[C@H](CC[C@@H]3C[C@@H](O)CC(=O)O3)[C@H]21` [lovastatin], the HDL-C [1] was 2.45 ± 0.20 ^D mmol/L, the LDL-C [1] was 7.73 ± 3.07 ^b mmol/L and the TC [2] was 0.024 ± 0.005 ^a mmol/g prot. The TG [2] was 0.031 ± 0.019 ^B mmol/g prot.
